Reference: patent US20060079555A1, “Diarylmethylidene piperidine derivatives, preparations thereof and uses thereof” (AstraZeneca AB, priority 2003, published 2006)

Molecular target: T1, human δ receptor (Homo sapiens, UniProt P41143)
T1 construct: expressed in transfected cells
Test: GTP[γ]35S binding functional assay, human δ receptor
Format: biochemical
Details: Emax in relation to the standard δ agonist SNC80
Description: The agonist activity of the compounds is measured by determining the degree to which the compounds receptor complex activates the binding of GTP to G-proteins to which the receptors are coupled. In the GTP binding assay, GTP[γ]^35S is combined with test compounds and membranes from HEK-293S cells expressing the cloned human opioid receptors or from homogenised rat and mouse brain. Agonists stimulate GTP[γ]^35S binding in these membranes. The EC50 and Emax values of compounds are determined from dose-response curves. Right shifts of the dose response curve by the delta antagonist naltrindole are performed to verify that agonist activity is mediated through delta receptors. The Emax values were determined in relation to the standard δ agonist SNC80, i.e., higher than 100% is a compound that have better efficacy than SNC80.

T1 sequence (P41143 whole entry): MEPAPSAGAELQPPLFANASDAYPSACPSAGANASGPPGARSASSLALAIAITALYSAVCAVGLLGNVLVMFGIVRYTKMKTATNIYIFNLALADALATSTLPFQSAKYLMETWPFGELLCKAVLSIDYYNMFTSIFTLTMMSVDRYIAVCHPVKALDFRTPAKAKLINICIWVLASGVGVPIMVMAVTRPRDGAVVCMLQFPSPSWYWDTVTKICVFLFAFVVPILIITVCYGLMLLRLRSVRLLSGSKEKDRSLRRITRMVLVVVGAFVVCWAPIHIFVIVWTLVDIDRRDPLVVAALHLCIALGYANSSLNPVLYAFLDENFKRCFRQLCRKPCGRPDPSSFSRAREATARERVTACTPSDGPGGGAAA

Structure (SMILES)	Emax
CCN(CC)C(=O)c1ccc(C(=C2CCNCC2)c2cccc(C(=O)Nc3ccccc3)c2)cc1 [Compound 1, 4-[[3-(anilinocarbonyl)phenyl](piperidin-4-ylidene)methyl]-N,N-diethylbenzamide]	69 to 105%
CCN(CC)C(=O)c1ccc(C(=C2CCNCC2)c2cccc(C(=O)NCc3ccccc3)c2)cc1 [Compound 2, 4-[{3-[(benzylamino)carbonyl]phenyl}(piperidin-4-ylidene)methyl]-N,N-diethylbenzamide]	69 to 105%
CCN(CC)C(=O)c1ccc(C(=C2CCNCC2)c2cccc(C(=O)NCCc3ccccc3)c2)cc1 [Compound 3, 4-[(3-{[(2-phenylethyl)amino]carbonyl}phenyl)(piperidin-4-ylidene)methyl]-N,N-diethylbenzamide]	69 to 105%
CCN(CC)C(=O)c1ccc(C(=C2CCNCC2)c2cccc(C(=O)NC3CCCC3)c2)cc1 [Compound 4, 4-[{3-[(cyclopentlamino)carbonyl]phenyl}(piperidin-4-ylidene)methyl]-N,N-diethylbenzamide]	69 to 105%
CCN(CC)C(=O)c1ccc(C(=C2CCNCC2)c2cccc(C(=O)NC3CCCCC3)c2)cc1 [Compound 5]	69 to 105%
CCN(CC)C(=O)c1ccc(C(=C2CCNCC2)c2cccc(C(=O)NCC3CCCCC3)c2)cc1 [Compound 6]	69 to 105%
CCN(CC)C(=O)c1ccc(C(=C2CCNCC2)c2cccc(C(=O)NCc3ccccc3Cl)c2)cc1 [Compound 7, 4-[(3-{[(2-chlorobenzyl)amino]carbonyl}phenyl)(piperidin-4-ylidene)methyl]-N,N-diethylbenzamide]	69 to 105%
CCN(CC)C(=O)c1ccc(C(=C2CCNCC2)c2cccc(C(=O)NCc3ccccc3F)c2)cc1 [Compound 8, 4-[(3-{[(2-fluorobenzyl)amino]carbonyl}phenyl)(piperidin-4-ylidene)methyl]-N,N-diethylbenzamide]	69 to 105%
CCN(CC)C(=O)c1ccc(C(=C2CCNCC2)c2cccc(C(=O)N[C@H](C)c3ccc(C)cc3)c2)cc1 [Compound 9, 4-[[3-({[(1R)1-(4-methylphenyl)ethyl]amino}carbonyl)phenyl](piperidin-4-ylidene)methyl]-N,N-diethylbenzamide]	69 to 105%
CCN(CC)C(=O)c1ccc(C(=C2CCNCC2)c2cccc(C(=O)Nc3nc(C)cs3)c2)cc1 [Compound 10, 4-[(3-{[(4-methyl-1,3-thiazol-2-yl)amino]carbonyl}phenyl)(piperidin-4-ylidene)methyl]-N,N-diethylbenzamide]	69 to 105%
CCN(CC)C(=O)c1ccc(C(=C2CCNCC2)c2cccc(C(=O)Nc3ccc(C)nc3C)c2)cc1 [Compound 11]	69 to 105%
CCN(CC)C(=O)c1ccc(C(=C2CCNCC2)c2cccc(C(=O)NCC(C)C)c2)cc1 [Compound 12, 4-[{3-[(isobutylamino)carbonyl]phenyl}(piperidin-4-ylidene)methyl]-N,N-diethylbenzamide]	69 to 105%
CCC(CC)NC(=O)c1cccc(C(=C2CCNCC2)c2ccc(C(=O)N(CC)CC)cc2)c1 [Compound 13, 4-[(3{[(1-ethylpropyl)amino]carbonyl}phenyl)(piperidin-4-ylidene)methyl]-N,N-diethylbenzamide]	69 to 105%
CCN(CC)C(=O)c1ccc(C(=C2CCNCC2)c2cccc(C(=O)N(C)CCc3ccccc3)c2)cc1 [Compound 14, 4-[(3-{[methyl(2-phenylethyl)amino]carbonyl}phenyl)(piperidin-4-ylidene)methyl]-N,N-diethylbenzamide]	69 to 105%
CCN(CC)C(=O)c1ccc(C(=C2CCNCC2)c2cccc(C(=O)N3CCCCC3)c2)cc1 [Compound 15]	69 to 105%
CCN(CC)C(=O)c1ccc(C(=C2CCNCC2)c2cccc(C(=O)N3CCCC3)c2)cc1 [Compound 16, N,N-diethyl-4-{piperidin-4-ylidene[3-(pyrrolidin-1-ylcarbonyl)phenyl]methyl}benzamide]	69 to 105%
